Like-named read-outs stand apart in the source and are kept apart here.
Key:
[1] = for XRPD pattern of the solids following moisture sorption analysis: after moisture sorption analysis; for hygroscopicity (in words) / observation upon desorption: moisture sorption analysis; for observation upon desorption: desorption scan; for water adsorbed at 60% RH / water adsorbed at 90% RH: 25° C.
Method: Approximately 10 mg of the sample was analyzed in a Pyrex bulb. Each scan utilized a step size of 10% RH and a maximum equilibration time of four hours per point. The sample was dried for one hour at 80° C. following the desorption scan to obtain the dry sample weight and then it was analyzed by XRPD.

[2] = Competitive slurries of brimonidine hemi-pamoate forms; assay type: physicochemical; details: for relative stability (conclusion from competitive slurries): competitive slurries in THF or water, one week; for XRPD (1 week): form: competitive slurry of Forms A, RT
[3] = ambient conditions
[4] = Method: After one week of exposure, the samples were analyzed by XRPD to check for form conversion and HPLC analysis to check for potential degradation. […] Ambient • Detection: 248 nm • Diluent: MeOH • Injection Volume: 5 μl
[5] = 88% RH; for Visual inspection (2 week): 2 weeks, inspected for deliquescence
Method: This solution results in 88% RH environment. After two weeks of storage the crystalline form was determined by XRPD and solid inspected for deliquescence.

[6] = cited from earlier work
[7] = ambient
Description: Following one week intervals, samples were isolated by centrifugation and dried in vacuo at ambient temperature overnight and analyzed by XRPD to check for polymorphic form conversion.

[8] = 60° C., sample exposed for 6 days (footnote)
[9] = stored uncapped at 60° C., 1 week

Row | Compound | XRPD pattern of the solids following moisture sorption analysis [1] | hygroscopicity (in words) [1] | observation upon desorption [1] | water adsorbed at 60% RH ([1]; moisture sorption) | water adsorbed at 90% RH ([1]; moisture sorption) | XRPD (1 week): form ([2]; C, D and E in water (1.0 mL)) | form by XRPD after overnight slurry in water [3] | solid state stability after one week of storage at 60° C. (in words, HPLC and XRPD) ([4]; 60° C., one week) | XRPD (1 week): form ([2]; B, C and D in THF (1.0 mL)) | HPLC (% purity) after thermal stress [4, 9] | XRPD (1 week): crystallinity [4, 9] | XRPD (1 week): form [4, 9] | Visual inspection (2 week) [5] | also measured
1 | Brc1c(NC2=NCCN2)ccc2nccnc12.Brc1c(NC2=NCCN2)ccc2nccnc12.O=C(O)c1cc2ccccc2c(Cc2c(O)c(C(=O)O)cc3ccccc23)c1O [Form E, brimonidine hemi-pamoate] | consistent with Form E | slightly hygroscopic | no hysteresis or indication of hydrate formation | 3.1 wt % | 4.2 wt % | Form F | mixture of Forms B and F | no significant degradation or signs of form conversion |  |  |  |  |  | relative stability (conclusion from competitive slurries) [2]: most stable anhydrate form; HPLC (% purity) after thermal stress [4, 8]: 100.0%; XRPD (1 week): crystallinity [4, 8]: Semi-cryst.; XRPD (1 week): form [4, 8]: (Form E)
2 | Brc1c(NC2=NCCN2)ccc2nccnc12.Brc1c(NC2=NCCN2)ccc2nccnc12.O=C(O)c1cc2ccccc2c(Cc2c(O)c(C(=O)O)cc3ccccc23)c1O [Form D, brimonidine hemi-pamoate] | consistent with Form D | slightly hygroscopic | no hysteresis or indication of hydrate formation | 1.8 wt % | 2.6 wt % | Form F | mixture of Forms B and F | no significant degradation or signs of form conversion | Form E | 96.7% | Crystalline | (Form D) |  | 
3 | Brc1c(NC2=NCCN2)ccc2nccnc12.Brc1c(NC2=NCCN2)ccc2nccnc12.O=C(O)c1cc2ccccc2c(Cc2c(O)c(C(=O)O)cc3ccccc23)c1O [Form C, brimonidine hemi-pamoate] | consistent with Form C | moderately hygroscopic | no hysteresis or indication of hydrate formation | 4.6 wt % | 13.0 wt % | Form F | mixture of Forms B and F | no significant degradation or signs of form conversion | Form E | 97.9% | Semi-cryst. | (Form C) | No deli- | 
4 | Brc1c(NC2=NCCN2)ccc2nccnc12 [brimonidine freebase, 5-bromo-6-(2-imidazolidinylideneamino)quinoxaline] |  |  |  |  |  |  |  |  |  |  |  |  |  | solubility in water (in words) ([6]; water): negligible
5 | Brc1c(NC2=NCCN2)ccc2nccnc12.Brc1c(NC2=NCCN2)ccc2nccnc12.O=C(O)c1cc2ccccc2c(Cc2c(O)c(C(=O)O)cc3ccccc23)c1O [Form A, brimonidine hemi-pamoate] | consistent with the Form A starting material | slightly hygroscopic | no hysteresis or indication of hydrate formation | 2.2 wt % | 2.5 wt % | Form F | Form B | stable by XRPD and HPLC | Form E | 100.0% | Crystalline | (Form A) | No deli- | stability after two weeks of storage at elevated relative humidity (in words) [5]: no sign of deliquescence or change in crystalline form; Form by XRPD (1 week) ([7]; slurry in THF 1 mL, 1 week): Form E; Form by XRPD (3 weeks) ([7]; slurry in water (magnetic stirring) 1 mL, 3 weeks): Form B
6 | Brc1c(NC2=NCCN2)ccc2nccnc12.Brc1c(NC2=NCCN2)ccc2nccnc12.O=C(O)c1cc2ccccc2c(Cc2c(O)c(C(=O)O)cc3ccccc23)c1O [Form B, brimonidine hemi-pamoate] | consistent with Form B |  |  | 5.4 wt % | 5.8 wt % |  |  |  | Form E | 100.0% | Crystalline | (Form B) |  | water content stabilized between 20-90% RH [1]: 5-6 wt %; solid state stability after one week of storage at 60° C. (in words, HPLC and XRPD) [4]: no degradation or signs of form conversion
7 | brimonidine tartrate |  |  |  |  |  |  |  |  |  |  |  |  |  | solubility in a pH 7.0 phosphate buffer ([6]; pH 7.0 phosphate buffer): 2.4 mg/mL; solubility in water ([6]; water): 34 mg/mL
8 | Brc1c(NC2=NCCN2)ccc2nccnc12.Brc1c(NC2=NCCN2)ccc2nccnc12.O=C(O)c1cc2ccccc2c(Cc2c(O)c(C(=O)O)cc3ccccc23)c1O [Form F, brimonidine hemi-pamoate] | consistent with Form F |  |  |  |  |  | mixture of Forms B and F |  |  |  |  |  | No deli- | water adsorbed at 40% RH ([1]; moisture sorption, 40% RH): approximately 1.8 molar equivalent; relative stability (conclusion from competitive slurries) [2]: more stable in water than Forms A, C, D and E; stability after two weeks of storage at elevated relative humidity (in words) [5]: no sign of deliquescence or change in crystalline form
